In patent US9849100B2, “Pharmaceutical compositions suitable for parenteral administration comprising aqueous suspensions of benzylamine derivatives having low solubilities” (KalVista Pharmaceuticals Limited, priority 2013, dated 2017):
Where two headings read alike, the source gives them in different places.

Assays:
diabetic rats = settings: cited from earlier work
[1] = Ocular tissue concentration study at twelve weeks following a single intravitreal dose in pigmented rabbits; type: in vivo; settings: both sexes, Dutch-belted, rabbit, other: intravitreal, single bilateral intravitreal dose of suspension, Day 86
Method: An aqueous suspension pharmaceutical composition of milled N—[(R)-1-[(S)-1-(4-aminomethyl-benzylcarbamoyl)-2-phenyl-ethylcarbamoyl]-2-(4-ethoxy-phenyl)-ethyl]-benzamide hydrochloride was prepared according to Example B1. The resulting nominal 50 mg/mL suspension was diluted with the milling vehicle (prepared according to Example B1) into dosing formulations for intravitreal injection. Five experimentally naïve male and female Dutch-belted rabbits, approximately 5 months old and weighing 1.6 to 2.2 kilograms at the outset of the study were assigned to treatment groups as shown in Table iv. [table] Animals were administered bilateral intravitreal doses of the suspension formulations once on Day 1. On Day 86, the vitreous humors and retina (with choroid) tissues were analysed for active ingredient concentration.

Row | concentration at 86 day ([1]; retina (with choroid), 15 μg/eye, low-dose group (15 μg/eye), read-out: average retina (with choroid) tissue concentration) | concentration at 86 day ([1]; retina (with choroid), 150 μg/eye, high-dose group (150 μg/eye), read-out: average retina (with choroid) tissue concentration) | concentration at 86 day ([1]; vitreous humor, 15 μg/eye, low-dose group (15 μg/eye), read-out: vitreous humor concentrations (range)) | concentration at 86 day ([1]; vitreous humor, 150 μg/eye, high-dose group (150 μg/eye), read-out: average vitreous humor concentration) | concentration at 86 day ([1]; vitreous humor, 150 μg/eye, high-dose group (150 μg/eye), read-out: vitreous humor concentrations (range)) | Structure (SMILES) | retinal blood flow abnormalities (diabetic rats) | retinal vascular permeability (diabetic rats)
1 |  |  |  |  |  | N=C(N)c1ccc(CNC(=O)c2cnn(Cc3ccccc3)c2)cc1 [ASP-440] | ameliorated | ameliorated
2 | 1620 ng/g | 44500 ng/g | 0.216 to 935 ng/mL | 27800 ng/mL | 2500 to 56500 ng/mL | CCOc1ccc(C[C@@H](NC(=O)c2ccccc2)C(=O)N[C@@H](Cc2ccccc2)C(=O)NCc2ccc(CN)cc2)cc1 [active ingredient, N—[(R)-1-[(S)-1-(4-aminomethyl-benzylcarbamoyl)-2-phenyl-ethylcarbamoyl]-2-(4-ethoxy-phenyl)-ethyl]-benzamide] |  | 
